Experimental data as given in ChEMBL document CHEMBL1201862, “PubChem BioAssay data set” (2004).
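Dose response: 5 concentrations. Exposure: 48 h. Format: 96-well plates. Endpoint: linear interpolation; highest concentration if not reached. GI50 marks 50% less growth.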 Active and inactive are the calls of the source. No stated cut-off is given here; in the data, active = GI50 up to about 1.1 µM and inactive = higher.

Assays:
Assay in all cases: NCI anticancer screen, dose series, 48 h
[1] = system: IGROV-1
[2] = system: UACC-62
[3] = system: KM-20L2
[4] = system: COLO 205
[5] = system: NCI-H226
[6] = system: NCI-H460
[7] = system: U-251
[8] = system: HCT-116
[9] = system: M19-MEL
[10] = system: SK-OV-3
[11] = system: SNB-78
[12] = system: DMS-273
[13] = system: DMS-114
[14] = system: HOP-18
[15] = system: RPMI-8226
[16] = system: KM12
[17] = system: TK-10
[18] = system: T47D
[19] = system: MDA-MB-231
[20] = system: MCF7

Measured: GI50

COc1cccc(NC(=O)CC(=O)N2N=C(N(CCC#N)c3ccc(Cl)cc3)CC2c2ccccc2)c1 (stereo unspecified)
inactive: [1] > 100 µM | [2] > 100 µM | [3] > 100 µM | [4] > 100 µM | [5] > 100 µM | [6] > 100 µM | [7] > 100 µM | [8] > 100 µM | [9] > 100 µM | [10] > 100 µM | [11] > 100 µM | [12] > 100 µM | [13] > 100 µM | [14] > 100 µM | [15] > 100 µM | [16] > 100 µM | [17] > 100 µM

O=C(c1cc(O)ccc1O)c1ccccc1C(Cl)(Cl)Cl
inactive: [1] > 100 µM | [2] 71.6 µM | [3] > 100 µM | [4] > 100 µM | [5] > 100 µM | [6] > 100 µM | [7] > 100 µM | [8] > 100 µM | [9] 90.8 µM | [10] > 100 µM | [11] > 100 µM | [12] > 100 µM | [13] 32 µM | [14] > 100 µM | [15] 47.5 µM | [16] > 100 µM | [17] > 100 µM

COC(=O)c1c(OC)cccc1C(=O)O
inactive: [1] > 100 µM | [2] > 100 µM | [3] > 100 µM | [4] > 100 µM | [5] > 100 µM | [6] > 100 µM | [7] > 100 µM | [8] > 100 µM | [9] > 100 µM | [10] > 100 µM | [11] > 100 µM | [12] > 100 µM | [13] > 100 µM | [14] > 100 µM | [15] > 100 µM | [16] > 100 µM | [17] > 100 µM

OCC(O)C(O)C(O)c1nn(-c2ccc(Cl)cc2)c2nc3cc(Cl)c(Cl)cc3nc12 (stereo unspecified)
inactive: [1] 31.8 µM | [2] 47 µM | [3] > 100 µM | [4] > 100 µM | [5] 21.1 µM | [6] 68.7 µM | [7] 57.5 µM | [8] > 100 µM | [9] > 100 µM | [10] 23.8 µM | [11] 20.7 µM | [12] > 100 µM | [13] 94.4 µM | [14] 31.9 µM | [15] > 100 µM | [16] > 10 µM | [17] 32.4 µM

N#CC(/C(=N\NC(N)=S)C(=O)NC1C2CC3CC(C2)CC1C3)c1ccc(Cl)cc1 (stereo unspecified)
inactive: [1] > 100 µM | [2] > 100 µM | [3] > 100 µM | [4] > 100 µM | [5] > 100 µM | [6] > 100 µM | [7] > 100 µM | [8] > 100 µM | [9] > 100 µM | [10] > 100 µM | [11] > 100 µM | [12] > 100 µM | [13] > 100 µM | [14] > 100 µM | [15] > 100 µM | [16] > 100 µM | [17] > 100 µM

O=C1NC(Cc2ccccc2)C(=O)N2CCCC12 (stereo unspecified)
inactive: [1] > 100 µM | [2] > 100 µM | [3] > 100 µM | [4] > 100 µM | [5] > 100 µM | [6] > 100 µM | [7] > 100 µM | [8] > 100 µM | [9] > 100 µM | [10] > 100 µM | [11] > 100 µM | [12] > 100 µM | [13] > 100 µM | [14] > 100 µM | [15] > 100 µM | [16] > 100 µM | [17] > 100 µM

Cc1cccc(C)c1NC(=O)C(=O)C1C(=O)NC(=O)NC1=O
inactive: [1] > 100 µM | [2] > 100 µM | [3] > 100 µM | [4] > 100 µM | [5] > 100 µM | [6] > 100 µM | [7] > 100 µM | [8] > 100 µM | [9] > 100 µM | [10] > 100 µM | [11] > 100 µM | [12] > 100 µM | [13] > 100 µM | [14] > 100 µM | [15] > 100 µM | [16] > 100 µM | [17] > 100 µM

CC(=O)/C(C)=N/NC(=O)c1ccccc1O
inactive: [1] 75 µM | [2] 39.7 µM | [3] > 10 µM | [4] > 10 µM | [5] > 10 µM | [6] > 10 µM | [7] > 10 µM | [8] > 10 µM | [18] > 100 µM | [9] > 10 µM | [10] > 10 µM | [11] > 10 µM | [12] > 10 µM | [13] > 10 µM | [14] > 10 µM | [19] > 100 µM | [20] > 100 µM | [15] > 10 µM | [16] > 10 µM | [17] > 10 µM

COC(=O)C1CC(OC(C)=O)C=C2C(=O)CCC21 (stereo unspecified)
inactive: [1] 27.2 µM | [2] 19.3 µM | [3] 30.2 µM | [4] 18.7 µM | [5] 73.1 µM | [6] 17.1 µM | [7] 28.3 µM | [8] 16.3 µM | [9] 22.4 µM | [10] 27.1 µM | [11] 24.1 µM | [12] 17.2 µM | [13] 15 µM | [14] 20.5 µM | [15] 21.4 µM | [16] 16.9 µM | [17] 29.4 µM
